“Also recorded” adds a separate entry of the source.
Experiments:
Type in all cases: in vivo, New Zealand rabbit
[1] = tested on: cataract induced left eye; assay: Macroscopic examination, cataract induced left eye (Tables 14-15); conditions: for cataract efficacy, macroscopic (in words): Table 15; for No Abnormality Detected, incidence: left eye (cataract induced), macroscopic
Protocol: (§1) An illustrative ophthalmic formulation for treatment of eye disease is set forth below: The formulations provided herein below are tested in cataract induced New Zealand rabbits, and the results are discussed herein below.
(§2) Cataract was induced by injecting 0.5% Methyl Cellulose, which is replaced by aqueous humor in the rabbit eye (i.e., 0.2 mL of Aqueous humor was withdrawn and the same 0.2 mL of 0.5% Methyl cellulose was injected as a replacement). Cataract was observed within 3-4 days of 0.5% Methyl cellulose replacement. Cataract induction was performed to left eye and right eye was served as a control.
(§3) Rabbits were observed by ophthalmoscope and slit lamp once in three days for cataract confirmation. Intraocular pressure was measured with a tonometer once in three days for the confirmation of glaucoma.

[2] = tested on: cataract induced left eye: lens and cornea; assay: Microscopic examination (histopathology) of lens and cornea (Table 16); conditions: for cataract efficacy, histopathology (in words): Table 16
Protocol: as §1, §2
(§4) All surviving animals were euthanized on Day 29 by overdose of Thiopental Sodium. Before scheduled euthanasia, the animals were fasted overnight (water allowed) and terminal body weights were recorded. Animals were subjected to detailed macroscopic observation during necropsy. Both right (untreated/uninduced) and left (treated/induced) eyes were collected and cornea and lens were separated, preserved in Davidson fluid. Cornea and lens selected for histopathological evaluation were processed, embedded and sections were cut at 3-5 μm thickness, Sections were placed on grease-free slides and stained with Hematoxylin and Eosin. A 5-step grading system of minimum, mild, moderate, marked and severe will be used to rank microscopic findings for comparison among groups. Data was compiled based on incidences and severity of changes.

[3] = tested on: cataract and intraocular pressure/glaucoma in induced rabbit eye; assay: Overall efficacy in cataract reduction and reducing intraocular pressure; conditions: third study; cataract reduction and reducing intraocular pressure, highest to lowest
Protocol: as §1
The following preclinical studies were conducted in rabbit model to test the efficacy of various active ingredients.
as §2, §3

[4] = tested on: intraocular pressure, glaucoma-induced left eye; assay: Intraocular pressure, tonometer (Table 17); conditions: for Intraocular pressure, Mean, Left eye: Left (induced) eye; for Intraocular pressure, Mean, Left eye / Intraocular pressure, Mean, Right eye: male, 6 animals/group; for intraocular pressure following treatment / mean intraocular pressure initially measured: induced left eye; for intraocular pressure following treatment: 28-day treatment regimen, 0.5%; for mean intraocular pressure initially measured: six animals, within three days
Protocol: as §2, §3
(§5) Intra-ocular pressures were measured in animals in each group once in three days using a Tonometer. The readings were documented for each eye separately.

[5] = tested on: cataract induced left eye: lens; assay: Microscopic observations (histopathology) of lens (Table 12); conditions: left eye (cataract induced)
Protocol: as §1, §2, §4

[6] = tested on: cataract induced left eye; assay: Macroscopic examination, cataract induced left eye (cinnamic acid derivatives, Tables 10-11); conditions: left eye (cataract induced), macroscopic; for No Abnormality Detected, incidence: animals affected/6
Protocol: as §1, §2, §3

[7] = tested on: intraocular pressure, induced left eye; assay: Intraocular pressure, tonometer (Table 13); parameters: unit not given beside the values; conditions: left eye induced/treated
Protocol: as §2, §3, §5

[8] = Day 28, ↓↓ = Significantly low at P ≤ 0.01 compared to respective control

O=C(O[C@@H]1Cc2c(O)cc(O)cc2O[C@@H]1c1cc(O)c(O)c(O)c1)c1cc(O)c(O)c(O)c1 [Epigallocatechin Gallate, (2R,3R)-2-(3,4,5-trihydroxyphenyl)-3,4-dihydro-1(2H)-benzopyran-3,5,7-triol 3-(3,4,5-trihydroxy benzoate)]
cataract efficacy, macroscopic (in words) [1]: complete recovery in all 6 animals, with no observable cataracts
No Abnormality Detected, incidence [1]: 6/6
cataract efficacy, histopathology (in words) [2]: fully restored, or regenerated in all 6 out of 6 animals, transitioning from severe degeneration to a milder state; also recorded: Only one animal exhibited mild corneal inflammation
Cornea, Inflammation: Mild, incidence ([2]; left eye induced): 1/6
Lens, Liquefaction: Mild, incidence ([2]; left eye induced): 6/6
overall efficacy / order of efficacy (in words) [3]: outstanding efficacy in reducing cataracts and also demonstrated a significant capability to address glaucoma; also recorded: Caffeic Acid G3>Epigallocatechin Gallate G4>Encapsulated Feruloyl Tyramine G5>Ferulic Acid G6>Rosmarinic Acid+Caffeic Acid G2
Intraocular pressure, Mean, Left eye ([4]; Day 3): 29.72 mmHg
Intraocular pressure, Mean, Left eye ([4]; Day 6): 33.06 mmHg
Intraocular pressure, Mean, Left eye ([4]; Day 9): 26.56 mmHg
Intraocular pressure, Mean, Left eye ([4]; Day 12): 32.50 mmHg
Intraocular pressure, Mean, Left eye ([4]; Day 15): 26.39 mmHg
Intraocular pressure, Mean, Left eye ([4]; Day 18): 28.94 mmHg
Intraocular pressure, Mean, Left eye ([4]; Day 21): 27.11 mmHg
Intraocular pressure, Mean, Left eye ([4]; Day 25): 25.56 mmHg
Intraocular pressure, Mean, Left eye [4, 8]: 20.00↓↓ mmHg
Intraocular pressure, Mean, Right eye ([4]; Day 3): 18.11 mmHg
Intraocular pressure, Mean, Right eye ([4]; Day 6): 16.94 mmHg
Intraocular pressure, Mean, Right eye ([4]; Day 9): 16.78 mmHg
Intraocular pressure, Mean, Right eye ([4]; Day 12): 17.00 mmHg
Intraocular pressure, Mean, Right eye ([4]; Day 15): 12.56 mmHg
Intraocular pressure, Mean, Right eye ([4]; Day 18): 16.61 mmHg
Intraocular pressure, Mean, Right eye ([4]; Day 21): 16.06 mmHg
Intraocular pressure, Mean, Right eye ([4]; Day 25): 18.17 mmHg
Intraocular pressure, Mean, Right eye ([4]; Day 28): 16.11 mmHg
intraocular pressure following treatment [4]: 20.00 mmHg
mean intraocular pressure initially measured [4]: 29.72 mmHg

O=C(/C=C/c1ccc(O)c(O)c1)OCCc1ccccc1 [Caffeic Acid Phenyl ethyl Ester, caffeic acid phenylethyl ester]
Within Normal Histological Limits, incidence [5]: 0/6
Epithelial proliferation, incidence ([5]; lens): 6/6
Lenticular Degeneration, incidence ([5]; lens): 6/6
Liquefaction, incidence ([5]; lens): 6/6
Epithelial proliferation: Marked, incidence ([5]; lens, number of animals): 1
Epithelial proliferation: Mild, incidence ([5]; lens, number of animals): 3
Epithelial proliferation: Minimal, incidence ([5]; lens, number of animals): 2
Liquefaction: Mild, incidence ([5]; lens, number of animals): 2
Liquefaction: Moderate, incidence ([5]; lens, number of animals): 4
Opacity, cornea and red discoloured, with diffuse opacity: Moderate, incidence [6]: 4/6
Opacity, cornea, diffuse: Minimal, incidence [6]: 1/6
Opacity, cornea, diffuse: Moderate, incidence [6]: 1/6
No Abnormality Detected, incidence [6]: 0/6
Intraocular Pressure, mean ([7]; Day 3): 88.07
Intraocular Pressure, mean ([7]; Day 6): 84.95
Intraocular Pressure, mean ([7]; Day 9): 84.67
Intraocular Pressure, mean ([7]; Day 12): 55.95
Intraocular Pressure, mean ([7]; Day 15): 42.80
Intraocular Pressure, mean ([7]; Day 18): 42.18
Intraocular Pressure, mean ([7]; Day 21): 40.93
Intraocular Pressure, mean ([7]; Day 24): 39.67
Intraocular Pressure, mean ([7]; Day 27): 36.27
Intraocular Pressure, mean ([7]; Day 30): 39.42
Intraocular Pressure, mean ([7]; Day 33): 41.85↓↓

COc1cc(/C=C/C(=O)O)ccc1O [Ferulic acid]
cataract efficacy, macroscopic (in words) [1]: complete recovery from cataracts in all 6 animals
No Abnormality Detected, incidence [1]: 6/6
cataract efficacy, histopathology (in words) [2]: minimal to moderate lenticular degeneration
Lens, Liquefaction: Mild, incidence ([2]; left eye induced): 4/6
Lens, Liquefaction: Minimal, incidence ([2]; left eye induced): 1/6
Lens, Liquefaction: Moderate, incidence ([2]; left eye induced): 1/6
overall efficacy / order of efficacy (in words) [3]: Caffeic Acid G3>Epigallocatechin Gallate G4>Encapsulated Feruloyl Tyramine G5>Ferulic Acid G6>Rosmarinic Acid+Caffeic Acid G2
Intraocular pressure, Mean, Left eye ([4]; Day 3): 30.39 mmHg
Intraocular pressure, Mean, Left eye ([4]; Day 6): 28.39 mmHg
Intraocular pressure, Mean, Left eye ([4]; Day 9): 28.28 mmHg
Intraocular pressure, Mean, Left eye ([4]; Day 12): 25.33 mmHg
Intraocular pressure, Mean, Left eye ([4]; Day 15): 26.00 mmHg
Intraocular pressure, Mean, Left eye ([4]; Day 18): 26.56 mmHg
Intraocular pressure, Mean, Left eye ([4]; Day 21): 23.22 mmHg
Intraocular pressure, Mean, Left eye ([4]; Day 25): 21.72 mmHg
Intraocular pressure, Mean, Left eye [4, 8]: 23.67↓↓ mmHg
Intraocular pressure, Mean, Right eye ([4]; Day 3): 17.28 mmHg
Intraocular pressure, Mean, Right eye ([4]; Day 6): 16.89 mmHg
Intraocular pressure, Mean, Right eye ([4]; Day 9): 16.89 mmHg
Intraocular pressure, Mean, Right eye ([4]; Day 12): 17.56 mmHg
Intraocular pressure, Mean, Right eye ([4]; Day 15): 14.94 mmHg
Intraocular pressure, Mean, Right eye ([4]; Day 18): 14.94 mmHg
Intraocular pressure, Mean, Right eye ([4]; Day 21): 17.06 mmHg
Intraocular pressure, Mean, Right eye ([4]; Day 25): 17.61 mmHg
Intraocular pressure, Mean, Right eye ([4]; Day 28): 17.28 mmHg
intraocular pressure following treatment [4]: 23.67 mmHg
mean intraocular pressure initially measured [4]: 30.39 mmHg

O=C(/C=C/c1ccc(O)c(O)c1)NCCc1ccccc1 [Caffeic Acid Phenylethyl Amide, caffeic acid phenylethyl amide]
Within Normal Histological Limits, incidence [5]: 0/6
Epithelial proliferation, incidence ([5]; lens): 2/6
Epithelial proliferation: Absent, incidence ([5]; lens): 4/6
Lenticular Degeneration, incidence ([5]; lens): 5/6
Liquefaction, incidence ([5]; lens): 5/6
Liquefaction: Absent, incidence ([5]; lens): 1/6
Epithelial proliferation: Mild, incidence ([5]; lens, number of animals): 2
Liquefaction: Mild, incidence ([5]; lens, number of animals): 2
Liquefaction: Minimal, incidence ([5]; lens, number of animals): 3
Opacity, cornea and red discoloured, with diffuse opacity: Moderate, incidence [6]: 1/6
Opacity, cornea, diffuse: Mild, incidence [6]: 2/6
Opacity, cornea, diffuse: Minimal, incidence [6]: 3/6
No Abnormality Detected, incidence [6]: 0/6
Intraocular Pressure, mean ([7]; Day 3): 86.65
Intraocular Pressure, mean ([7]; Day 6): 79.88
Intraocular Pressure, mean ([7]; Day 9): 78.77
Intraocular Pressure, mean ([7]; Day 12): 72.72
Intraocular Pressure, mean ([7]; Day 15): 50.78
Intraocular Pressure, mean ([7]; Day 18): 49.95
Intraocular Pressure, mean ([7]; Day 21): 45.67
Intraocular Pressure, mean ([7]; Day 24): 49.77
Intraocular Pressure, mean ([7]; Day 27): 36.27
Intraocular Pressure, mean ([7]; Day 30): 25.85
Intraocular Pressure, mean ([7]; Day 33): 36.68↓↓

— patent US20260355137A1, “NOVEL OPHTHALMIC FORMULATION” (FERTIS INDIA PVT LTD, priority 2022, published 2026)
